Laboratory results taken from patent US11771663B2, “Epinephrine spray formulations” (HIKMA PHARMACEUTICALS USA INC., priority 2015, dated 2023).

Assays:
[1] = Rabbit pharmacokinetics, single-dose non-crossover, plasma epinephrine by LC-MS/MS; format: in vivo, New Zealand white rabbits; settings: male, New Zealand white, intramuscular, 0.03 mg per animal, single-dose IM
Method: Protocol design was a single-dose non-crossover study. Pharmacokinetics of a number of epinephrine formulations were evaluated in healthy male New Zealand white rabbits weighing approximately two to three kilograms. For dosing of each formulation, five or six rabbits were used. The rabbits were fasted overnight till four hours' post administration. Blood samples were taken prior to administration and 5, 10, 15, 20, 30, 40 min, 1, 1.5, 2, 4, and 5 hours' post dose. Rabbit plasma samples were measured for epinephrine concentrations via liquid chromatography-tandem mass spectrometry. Formulation #R9 existed as a spray-dried powder of epinephrine bitartrate salt. For the evaluation of #R9, approximately 21.83 mg of powder was dosed to each animal, as an equivalent dose of 12 mg epinephrine.

[2] = Mini-pig pharmacokinetics, single-dose crossover, plasma epinephrine by LC-MS/MS; format: in vivo, Yucatan mini-pigs; settings: male, Yucatan, 0.3 mg per animal, minipig, single-dose intramuscular (IM), read-out: geometric mean plasma concentration of epinephrine
Method: Protocol design was a single-dose crossover study. Five healthy male Yucatan mini-pigs weighing approximately eighty to ninety-five kilograms each were administered epinephrine formulations. The minipigs were fasted overnight till four hours' post administration. Each dosing was followed by a washout period of at least one-week. Blood samples were taken prior to administration and 2, 5, 10, 15, 20, 30, 45 min, 1, 1.5, 2, 4, and 24 hours' post dose. Minipig plasma samples were measured for epinephrine concentrations via liquid chromatography-tandem mass spectrometry.

`CNC[C@H](O)c1ccc(O)c(O)c1` [epinephrine, Epinephrine] gave a concentration at 5 min [1] of 0.988 ng/mL and a concentration at 5 min [2] of 0.046 ng/mL.
